ChEMBL document CHEMBL1136315, “Identification of a novel class of inhibitor of human and Escherichia coli thymidine phosphorylase by in silico screening” (Bioorg Med Chem Lett, 2003)

Experiments:
[1] = target: T1, Thymidine phosphorylase (Homo sapiens) (UniProt P19971); assay: Inhibitory activity (134 uM) against Escherichia coli thymidine phosphorylase
T1 sequence (whole entry): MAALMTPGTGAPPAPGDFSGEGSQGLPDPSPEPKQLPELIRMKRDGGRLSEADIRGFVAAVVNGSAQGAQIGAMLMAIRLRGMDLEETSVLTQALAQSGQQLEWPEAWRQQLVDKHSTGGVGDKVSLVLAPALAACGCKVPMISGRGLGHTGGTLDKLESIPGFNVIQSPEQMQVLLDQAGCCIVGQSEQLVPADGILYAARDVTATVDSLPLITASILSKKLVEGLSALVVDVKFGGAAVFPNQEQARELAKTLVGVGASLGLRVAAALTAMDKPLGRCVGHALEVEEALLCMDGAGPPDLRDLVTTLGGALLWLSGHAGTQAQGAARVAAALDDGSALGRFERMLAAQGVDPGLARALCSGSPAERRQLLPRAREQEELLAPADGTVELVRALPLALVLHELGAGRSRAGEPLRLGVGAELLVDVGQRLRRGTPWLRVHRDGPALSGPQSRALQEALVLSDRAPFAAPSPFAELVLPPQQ

[2] = target: Thymidine phosphorylase (Escherichia coli) (UniProt P07650); assay: Inhibitory activity (105 uM) against Escherichia coli thymidine phosphorylase
Thymidine phosphorylase (Escherichia coli), sequence (P07650 whole entry, looked up): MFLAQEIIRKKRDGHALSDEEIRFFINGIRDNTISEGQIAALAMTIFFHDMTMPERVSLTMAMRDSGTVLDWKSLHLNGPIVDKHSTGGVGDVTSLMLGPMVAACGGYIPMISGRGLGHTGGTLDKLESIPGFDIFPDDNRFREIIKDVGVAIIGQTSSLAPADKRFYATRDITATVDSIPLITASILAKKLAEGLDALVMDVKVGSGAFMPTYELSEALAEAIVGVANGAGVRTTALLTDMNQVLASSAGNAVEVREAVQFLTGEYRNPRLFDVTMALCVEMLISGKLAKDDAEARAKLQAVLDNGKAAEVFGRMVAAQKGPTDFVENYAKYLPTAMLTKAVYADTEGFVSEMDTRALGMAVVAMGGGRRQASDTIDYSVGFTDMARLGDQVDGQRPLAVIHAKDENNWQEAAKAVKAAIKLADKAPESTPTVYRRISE

Compound | inhibition [1] | inhibition [2]
C=CCN/C(S)=N/C=C1C(=O)NC(=O)NC1=O | 60% | 
CCCCC1(/C=N/N=C(/N)S)NC(=O)NC1=O (configuration not stated) |  | 23%
